Patent US10722514B2 (FLX Bio, Inc., priority 2017, dated 2020)
Structures can show the parent of a compound that is named as a salt.

target: T1, recombinant full-length USP7 (Homo sapiens, UniProt Q93009); assay: USP7-mediated ubiquitin-rhodamine cleavage assay; type: biochemical; settings: recombinant full-length USP7 62 pM; ubiquitin-rhodamine 100 nM; 30-minute incubation with compound, 1 hour reaction at room temperature; read-out: Potency: USP7 IC50
T1 construct: A 25 μl reaction volume containing recombinant full-length USP7 (62 pM)
T1 sequence (Q93009 whole entry): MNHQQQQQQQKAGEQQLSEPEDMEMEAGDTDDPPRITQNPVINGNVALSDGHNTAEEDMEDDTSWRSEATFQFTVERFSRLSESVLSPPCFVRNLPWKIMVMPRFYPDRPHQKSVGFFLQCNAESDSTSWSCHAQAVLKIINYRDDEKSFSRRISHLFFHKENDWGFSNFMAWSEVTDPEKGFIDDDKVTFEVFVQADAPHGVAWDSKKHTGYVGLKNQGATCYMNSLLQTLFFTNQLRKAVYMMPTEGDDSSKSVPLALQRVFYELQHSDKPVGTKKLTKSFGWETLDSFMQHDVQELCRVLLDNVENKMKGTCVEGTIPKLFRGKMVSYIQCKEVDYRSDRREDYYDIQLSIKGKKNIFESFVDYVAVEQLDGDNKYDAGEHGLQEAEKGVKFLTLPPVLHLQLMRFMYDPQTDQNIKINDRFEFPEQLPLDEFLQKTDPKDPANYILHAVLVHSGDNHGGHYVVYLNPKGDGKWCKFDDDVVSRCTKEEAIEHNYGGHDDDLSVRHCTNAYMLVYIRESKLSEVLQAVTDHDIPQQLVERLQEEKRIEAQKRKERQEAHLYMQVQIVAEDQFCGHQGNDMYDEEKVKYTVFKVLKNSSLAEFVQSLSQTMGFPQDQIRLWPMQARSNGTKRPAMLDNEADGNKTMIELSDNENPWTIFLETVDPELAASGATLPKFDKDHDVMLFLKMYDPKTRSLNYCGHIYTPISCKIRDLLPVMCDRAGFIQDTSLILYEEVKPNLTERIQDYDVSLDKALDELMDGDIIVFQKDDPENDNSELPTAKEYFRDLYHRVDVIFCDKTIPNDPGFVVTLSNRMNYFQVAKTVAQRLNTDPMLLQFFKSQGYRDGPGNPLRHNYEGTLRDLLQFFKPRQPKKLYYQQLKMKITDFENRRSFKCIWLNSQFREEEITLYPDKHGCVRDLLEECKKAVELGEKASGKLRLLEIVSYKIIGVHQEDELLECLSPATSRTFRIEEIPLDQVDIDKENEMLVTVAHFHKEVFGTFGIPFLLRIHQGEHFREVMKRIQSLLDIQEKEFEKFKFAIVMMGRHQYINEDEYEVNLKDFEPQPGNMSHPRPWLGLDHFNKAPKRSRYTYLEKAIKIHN
Outline: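 After compound and enzyme (62 pM) sat together 30 min at RT, 100 nM fluorogenic ubiquitin-rhodamine substrate was added for 1 h protected from light. Acetic acid quenched the reaction prior to the fluorescence read.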

Question: For `Cc1cc(Cl)cc(-c2ccnc3cc(Cn4c(=O)ccn(C(C)C)c4=O)sc23)c1O[C@@H]1CNC[C@@H]1C` [Example 329, 3-[[7-[5-chloro-3-methyl-2-[(3S,4S)-4-methylpyrrolidin-3-yl]oxy-phenyl]thieno[3,2-b]pyridin-2-yl]methyl]-1-isopropyl-pyrimidine-2,4-dione], which IC50 is on record?
Answer: The IC50 was under 1000 nM.

Question: How did the IC50 turn out when `Cc1cc(Cl)cc(-c2ccnc3c(F)c(CO)sc23)c1O[C@@H]1CNC[C@@H]1F` [Example 156, (7-(5-Chloro-2-(((3R,4S)-4-fluoropyrrolidin-3-yl)oxy)-3-methylphenyl)-3-fluorothieno[3,2-b]pyridin-2-yl)methanol] was run?
Answer: The IC50 was 1000 to 10000 nM.

Question: With `Cc1cc(Cl)cc(-c2ccnc3cc(Cn4c(=O)ccn(CC(F)(F)F)c4=O)sc23)c1O[C@@H]1CCNC[C@@]1(C)F` [Example 276, 3-((7-(5-Chloro-2-(((3R,4R)-3-fluoro-3-methylpiperidin-4-yl)oxy)-3-methylphenyl)thieno[3,2-b]pyridin-2-yl)methyl)-1-(2,2,2-trifluoroethyl)pyrimidine-2,4(1H,3H)-dione] as the compound, how does the IC50 read?
Answer: The IC50 was under 1000 nM.

Question: With `Cc1cc(Cl)cc(-c2ccnc3ccsc23)c1OC1CCC(=O)NC1` (stereo not drawn) [Example 198, 5-(4-Chloro-2-methyl-6-(thieno[3,2-b]pyridin-7-yl)phenoxy)piperidin-2-one] as the compound, how does the IC50 read?
Answer: Its IC50 is over 30000 nM.

Question: `Cc1cc(Cl)cc(-c2ncnc3cc(CN4C(=O)CCC4=O)sc23)c1O[C@@H]1CCNC[C@H]1F` [Example 306, 1-[[4-[5-chloro-2-[[(3R,4R)-3-fluoro-4-piperidyl]oxy]-3-methyl-phenyl]thieno[3,2-d]pyrimidin-6-yl]methyl]pyrrolidine-2,5-dione dihydrochloride] was tested. Which IC50 did it give?
Answer: Its IC50 is under 1000 nM.

Question: For `Cc1cc(Cl)cc(-c2ccnc3cc(CN4C(=O)C5CC5C4=O)sc23)c1OC1CCNC1C` (stereo not drawn) [Example 301, 3-[[7-[5-chloro-3-methyl-2-(2-methylpyrrolidin-3-yl)oxy-phenyl]thieno[3,2-b]pyridin-2-yl]methyl]-3-azabicyclo[3.1.0]hexane-2,4-dione; 2,2,2-trifluoroacetic acid], which IC50 is on record?
Answer: Its IC50 is under 1000 nM.

Question: With `Cc1cc(Cl)cc(-c2ccnc3cc(CN4C(=O)C5C(C4=O)C5(C)C)sc23)c1O[C@@H]1C[C@@H]2C[C@H]1N(C)C2` (stereo partly drawn) [Example 333, 3-[[7-[5-chloro-3-methyl-2-[[(1S,4R,5R)-3-methyl-3-azabicyclo[2.2.1]heptan-5-yl]oxy]phenyl]thieno[3,2-b]pyridin-2-yl]methyl]-6,6-dimethyl-3-azabicyclo[3.1.0]hexane-2,4-dione] as the compound, how does the IC50 read?
Answer: The IC50 was under 1000 nM.

Question: For `Cc1cc([N+](=O)[O-])cc(-c2ccnc3cc(Cn4c(=O)ccn(CC(F)(F)F)c4=O)sc23)c1Oc1cncc(N)c1` [Example 281, 3-[[7-[2-[(5-amino-3-pyridyl)oxy]-3-methyl-5-nitro-phenyl]thieno[3,2-b]pyridin-2-yl]methyl]-1-(2,2,2-trifluoroethyl)pyrimidine-2,4-dione], which IC50 is on record?
Answer: Its IC50 is under 1000 nM.

Question: Which IC50 does the source give for `Cc1cc(C#N)cc(-c2ncnc3ccsc23)c1OCC1(C)CNC1` [Example 24, 3-Methyl-4-((3-methylazetidin-3-yl)methoxy)-5-(thieno[3,2-d]pyrimidin-4-yl)benzonitrile] here?
Answer: Its IC50 is 10000 to 30000 nM.

Question: Which IC50 does the source give for `N#Cc1cc(Cl)cc(-c2ccnc3cc(CO)sc23)c1O[C@H]1CCCNC1` [Example 239, (S)-5-Chloro-3-(2-(hydroxymethyl)thieno[3,2-b]pyridin-7-yl)-2-(piperidin-3-yloxy)benzonitrile] here?
Answer: The IC50 was over 30000 nM.

Question: `Cc1cc(Cl)cc(-c2ccnc3cc(Cn4c(=O)ccn(CC(F)(F)F)c4=O)sc23)c1O[C@H]1C[C@H](N)C1` [Example 277, 3-((7-(2-((1r,3r)-3-Aminocyclobutoxy)-5-chloro-3-methylphenyl)thieno[3,2-b]pyridin-2-yl)methyl)-1-(2,2,2-trifluoroethyl)pyrimidine-2,4(1H,3H)-dione] was tested. Which IC50 did it give?
Answer: The IC50 was under 1000 nM.

Question: How did the IC50 turn out when `Cc1cc(Cl)cc(-c2ccnc3cc(CN4C(=O)CCC4=O)sc23)c1O[C@@H]1CCCNCC1` [Example 270, (R)-1-((7-(2-(Azepan-4-yloxy)-5-chloro-3-methylphenyl)thieno[3,2-b]pyridin-2-yl)methyl)pyrrolidine-2,5-dione] was run?
Answer: Its IC50 is under 1000 nM.

Question: How did the IC50 turn out when `N#Cc1cc(Cl)c(O[C@@H]2CNC[C@@H]2F)c(-c2ccnc3cc(CN4C(=O)CCC4=O)sc23)c1` [Example 122, 3-Chloro-5-(2-((2,5-dioxopyrrolidin-1-yl)methyl)thieno[3,2-b]pyridin-7-yl)-4-(((3R,4S)-4-fluoropyrrolidin-3-yl)oxy)benzonitrile] was run?
Answer: The IC50 was under 1000 nM.

Question: With `CCC1(C)CC(=O)N(Cc2cc3ncnc(-c4cc(Cl)cc(C)c4O[C@@H]4CNC[C@@H]4F)c3s2)C1=O` (stereo partly drawn) [Example 381, 1-[[4-[5-chloro-2-[(3R,4S)-4-fluoropyrrolidin-3-yl]oxy-3-methyl-phenyl]thieno[3,2-d]pyrimidin-6-yl]methyl]-3-ethyl-3-methyl-pyrrolidine-2,5-dione; 2,2,2-trifluoroacetic acid] as the compound, how does the IC50 read?
Answer: The IC50 was under 1000 nM.

Question: For `CN[C@H]1CC[C@H](Oc2c(C)cc(Cl)cc2-c2ccnc3cc(CN4C(=O)CCC4=O)sc23)CC1` [Example 213, 1-((7-(5-Chloro-3-methyl-2-(((1r,4r)-4-(methylamino)cyclohexyl)oxy)phenyl)thieno[3,2-b]pyridin-2-yl)methyl)pyrrolidine-2,5-dione], which IC50 is on record?
Answer: The IC50 was under 1000 nM.

Question: `Cc1cc(C(F)(F)F)cc(-c2ccnc3cc(CN4C(=O)CCC4=O)sc23)c1OC1CCNCC1` [Example 253, 1-((7-(3-Methyl-2-(piperidin-4-yloxy)-5-(trifluoromethyl)phenyl)thieno[3,2-b]pyridin-2-yl)methyl)pyrrolidine-2,5-dione] was tested. Which IC50 did it give?
Answer: The IC50 was under 1000 nM.

Question: With `Cc1cc(Cl)cc(-c2ccnc3cc(Cn4c(=O)cc[nH]c4=O)sc23)c1OC1CCNCC1` [Example 184, 3-((7-(5-Chloro-3-methyl-2-(piperidin-4-yloxy)phenyl)thieno[3,2-b]pyridin-2-yl)methyl)pyrimidine-2,4(1H,3H)-dione] as the compound, how does the IC50 read?
Answer: The IC50 was under 1000 nM.

Question: How did the IC50 turn out when `Cc1cc(Cl)cc(-c2ccnc3cc(CN4C(=O)CCC4=O)sc23)c1O[C@@H]1CNC[C@@H]1N=[N+]=[N-]` [Example 83, 1-((7-(2-(((3R,4S)-4-Azidopyrrolidin-3-yl)oxy)-5-chloro-3-methylphenyl)thieno[3,2-b]pyridin-2-yl)methyl)pyrrolidine-2,5-dione] was run?
Answer: Its IC50 is under 1000 nM.

same assay, conditions: recombinant full-length USP7 62 pM; ubiquitin-rhodamine 100 nM; 30-minute incubation, 1 hour reaction at room temperature; read-out: Potency (USP7 IC50)

Question: With `Cc1cc(Cl)cc(-c2ccnc3cc(Cn4c(=O)ccn(CC(F)(F)F)c4=O)sc23)c1OCCN1CCC1` [Example 701, 3-[[7-[2-[2-(azetidin-1-yl)ethoxy]-5-chloro-3-methyl-phenyl]thieno[3,2-b]pyridin-2-yl]methyl]-1-(2,2,2-trifluoroethyl)pyrimidine-2,4-dione; 2,2,2-trifluoroacetic acid] as the compound, how does the IC50 read?
Answer: Its IC50 is under 1000 nM.

same assay, conditions: recombinant full-length USP7 62 pM; ubiquitin-rhodamine 100 nM; 30-minute pre-incubation, 1 hour reaction at room temperature; read-out: Potency (USP7 IC50)

Question: `Cc1cc(Cl)cc(-c2ccnc3cc(Cn4c(=O)ccn(CC(F)(F)F)c4=O)sc23)c1OCCN1CCOCC1` [Example 662, 3-[[7-[5-chloro-3-methyl-2-(2-morpholinoethoxy)phenyl]thieno[3,2-b]pyridin-2-yl]methyl]-1-(2,2,2-trifluoroethyl)pyrimidine-2,4-dione; 2,2,2-trifluoroacetic acid] was tested. Which IC50 did it give?
Answer: The IC50 was under 1000 nM.

Question: For `Cc1cc(Cl)cc(-c2ccnc3cc(CN4C(=O)CCC4=O)sc23)c1OC1CC2(CCN2)C1` (stereo not drawn) [Example 439, 1-[[7-[2-(1-azaspiro[3.3]heptan-6-yloxy)-5-chloro-3-methyl-phenyl]thieno[3,2-b]pyridin-2-yl]methyl]pyrrolidine-2,5-dione; 2,2,2-trifluoroacetic acid], which IC50 is on record?
Answer: Its IC50 is under 1000 nM.

Question: How did the IC50 turn out when `Cc1cc(Cl)cc(-c2ccnc3cc(CN4C(=O)C[C@H](O)C4=O)sc23)c1OC1CCNCC1` [Example 417, (3S)-1-[[7-[5-chloro-3-methyl-2-(4-piperidyloxy)phenyl]thieno[3,2-b]pyridin-2-yl]methyl]-3-hydroxy-pyrrolidine-2,5-dione dihydrochloride] was run?
Answer: The IC50 was under 1000 nM.

Question: For `Cc1cc(Cl)cc(-c2ccnc3cc(Cn4c(=O)ccn(C)c4=O)sc23)c1O[C@H]1CCCN(CCO)CC1` [Example 494, 3-[[7-[5-chloro-2-[(4S)-1-(2-hydroxyethyl)azepan-4-yl]oxy-3-methyl-phenyl]thieno[3,2-b]pyridin-2-yl]methyl]-1-methyl-pyrimidine-2,4-dione], which IC50 is on record?
Answer: Its IC50 is under 1000 nM.

Question: With `Cc1cc(Cl)cc(-c2ccnc3cc(Cn4c(=O)ccn(CC(F)(F)F)c4=O)sc23)c1O[C@H]1CN[C@H](C(F)F)C1` [Example 574, 3-[[7-[5-chloro-2-[(3R,5S)-5-(difluoromethyl)pyrrolidin-3-yl]oxy-3-methyl-phenyl]thieno[3,2-b]pyridin-2-yl]methyl]-1-(2,2,2-trifluoroethyl)pyrimidine-2,4-dione] as the compound, how does the IC50 read?
Answer: The IC50 was under 1000 nM.

Question: How did the IC50 turn out when `Cc1cc(Cl)cc(-c2ccnc3cc(Cn4c(=O)ccn(CC(F)(F)F)c4=O)sc23)c1OC1CCCC1` [Example 664, 3-[[7-[5-chloro-2-(cyclopentoxy)-3-methyl-phenyl]thieno[3,2-b]pyridin-2-yl]methyl]-1-(2,2,2-trifluoroethyl)pyrimidine-2,4-dione] was run?
Answer: The IC50 was under 1000 nM.

Question: With `Cc1cc(Cl)cc(-c2ccnc3cc(Cn4c(=O)ccn(CC(F)(F)F)c4=O)sc23)c1OC1C=CCNC1` (stereo not drawn) [Example 631, 3-[[7-[5-chloro-3-methyl-2-(1,2,3,6-tetrahydropyridin-3-yloxy)phenyl]thieno[3,2-b]pyridin-2-yl]methyl]-1-(2,2,2-trifluoroethyl)pyrimidine-2,4-dione] as the compound, how does the IC50 read?
Answer: The IC50 was under 1000 nM.

Question: Which IC50 does the source give for `Cc1cc(Cl)cc(-c2ccnc3cc(Cn4c(=O)ccn(C(C)C)c4=O)sc23)c1O[C@H]1CCNC[C@@H]1F` [Example 563, 3-[[7-[5-chloro-2-[[(3S,4S)-3-fluoro-4-piperidyl]oxy]-3-methyl-phenyl]thieno[3,2-b]pyridin-2-yl]methyl]-1-isopropyl-pyrimidine-2,4-dione] here?
Answer: Its IC50 is under 1000 nM.
